From patent US20110092433A1, “FGF9-RELATED METHODS FOR TREATING ANXIETY” (THE BOARD OF TRUSTEES OF THE LELAND STANFORD JUNIOR …, priority 2007, published 2011)

Columns and labels:
Rodents [1] = experiment: Forced swim test (FST) after microinjection; format: in vivo; details: acute microinjection, versus controls
Text: (§1) This is also in the same direction as the FGF2 data, consistent with the fact that both FGF2 and NCAM interact with the FGF receptor.
(§2) These observations are nevertheless consistent with the conclusions drawn from the microinjection studies above.

Rodents [2] = experiment: Elevated plus maze (EPM) after microinjection; format: in vivo; details: for time in the center quadrant of EPM / time in the closed arms of EPM / time in the open arms of EPM: acute microinjection, versus controls
Text: as §1, §2

Sprague-Dawley rats [3] = experiment: Morris water maze in adults after early postnatal FGF2; format: in vivo, rat; details: FGF2 20 ng/g s.c. the day after birth, tested as adults
Protocol: (§3) Methods. Sprague-Dawley rats were injected with either vehicle or FGF2 (20 ng/g, s.c.) the day after birth and sacrificed after Morris water maze testing as adults. We assessed changes in gene expression using both a candidate approach and a gene discovery approach with laser-capture microdissection of the dentate gyrus followed by microarray analyses.

[4] = system: hippocampal gene expression; experiment: Hippocampal gene expression in adults after early postnatal FGF2 (histochemical and RNA expression assays); format: in vivo, rat; details: adult rats, FGF2 20 ng/g s.c. the day after birth
Protocol: as §3

rats = experiment: Elevated plus-maze (EPM) and light-dark (LD) anxiety test after chronic FGF2; format: in vivo, rat; details: FGF2 5 ng/g i.p. every 48 hours for 3 weeks
Protocol: Anxiety disorders have a high comorbidity with other neuropsychiatric disorders including Major Depression (MD). […] Rats were placed into “high anxiety” (LR) or “low anxiety” (HR) groups based on their behavior in a variety of motor and behavioral tests. Both groups of animals were administered either FGF2 (5 ng/g) or vehicle by intraperitoneal injection every 48 hours for 3 weeks. One day after the last FGF2 injection, all animals were tested in the elevated plus-maze (EPM) and light-dark (LD) anxiety test.
The apparatus for the EPM test is constructed of black Plexiglass with […] (70 cm from the floor, 45 cm long, and 12 cm wide). Illumination is provided by a 40-watt desk lamp facing a wall and placed behind one of the closed arms. The scientists put the animal inside the system. Animals that are less anxious spend more time in the open arms whereas animals that are more anxious spend less time in the open arms.
The LD test is conducted in a 30×60×30-cm Plexiglas shuttle box with a translucent cover. Each box is divided into two equal-sized compartments by a wall with a 12 cm-wide open door. One compartment is painted white and brightly illuminated, and the other is painted black with very dim light. The time each rat spends in each compartment is monitored by rows of five photocells located 2.5 cm above the grid floor of each compartment. […]

[5] = system: FGFR2 and FGFR3 exon IIIc:IIIb splice variant ratio; experiment: Real time RT-PCR of exon IIIc:IIIb splice variant ratio in frontal cortex; format: in vivo, rat; details: FGF2 5 ng/g i.p. every 48 hours for three weeks, NS or S group, P>0.1
Protocol: Animals. Twenty-four male Sprague-Dawley rats weighing 220-250g were ordered from Charles River (Wilmington, Mass.) and remained undisturbed for one week to acclimatize to housing conditions. The animals were housed in pairs on a 12 h light-dark cycle (lights on 6:00 A.M.) with food and water available ad libitum. All experiments were conducted in accordance with the NIH Guide for the Care and Use of Animals and the University Committee on the Use and Care of Animals.
FGF2 injection treatments and chronic unpredictable stress (CUS) conditions. […]
Total RNA extraction. […] Using the Bioanalyzer's concentration readings, the samples were normalized to 25 ng/μL of total RNA per subject and stored at −80° C.
cDNA synthesis. cDNA was synthesized using the iScript cDNA Synthesis Kit (Bio-Rad, Hercules, Calif.). […] The double-stranded cDNA solutions were then analyzed for quality and concentration using Invitrogen's Quant-iT PicoGreen dsDNA kit. […] The fluorescently labeled samples were analyzed with a 1420 Victor^2 Multilabel Counter (EG&G Wallac, Wellesley, Mass.) using the basic Fluorescein protocol. […]
Real time RT-PCR primer design. […] Exon sequences were analyzed using NCBI's nucleotide and protein BLAST and were matched with their corresponding protein products within the receptor structures (FIG. 11). […]

Sprague-Dawley rats [6] = experiment: Forced swim testing after chronic FGF2; format: in vivo, rat; details: chronic FGF2 administration
Protocol: FGF2 injection treatments and chronic unpredictable stress (CUS) conditions. Half of the rats (n=12) were administered vehicle (0.1M PBS with 100 μg/mL bovine serum albumin), and the other half (n=12) were administered human recombinant FGF2 dissolved in vehicle in 5 ng/g dosages (Sigma, St. Louis, Mo.) every 48 hours for three weeks. All treatments were injected intra-peritonealy. During the same three week period as the FGF2 treatments, the vehicle group was either handled (n=6) or exposed to CUS (n=6). Likewise, the FGF2 injected group was either handled (n=6) or exposed to CUS (n=6). The animals were exposed to the following chronic unpredictable stressors (described in Isgor et al. (2004)): ether (30 s), cold (2 h), noise (15 m), isolation (24 h), or restraint (2 h). The stressors were randomized to avoid habituation; sessions occurred once each day in either the morning or afternoon. The 2×2 (condition by treatment) design divided the subjects into nonstressed/vehicle (NS/V), nonstressed/FGF2 injection (NS/F), stressed/vehicle (S/V), and stressed/FGF2 injection (S/F) groups.
Forced swim testing. To test for possible FGF2 injection effects on anti-depressant behavior for other studies, all animals were subjected to forced swim testing according to Lucki (1997) 24 h after the termination of the FGF2 treatments and CUS conditions.

| Substance | depression-like behavior (FST) (Rodents [1]) | immobility in FST (Rodents [1]) | time in the center quadrant of EPM (Rodents [2]) | time in the closed arms of EPM (Rodents [2]) | time in the open arms of EPM (Rodents [2]) | swimming in FST (Rodents [1]) | further results |
| --- | --- | --- | --- | --- | --- | --- | --- |
| EVYVVAENQQGKSKA [NCAM] | less depression-like behavior | less immobility | significantly less time | more time (although not signficantly more time) | less time | – | – |
| FGF2: human recombinant FGF2 (Sigma), fibroblast growth factor 2 | less depression-like behavior | less immobility | – | significantly more time | less time | more swimming | anxiety-like behavior (EPM) (Rodents [2]; acute injection): increased; time to find a hidden platform in Morris Water maze test (average) (Sprague-Dawley rats [3]): 20 s; performance in learning and memory tests (Sprague-Dawley rats [3]; versus vehicle): significantly better; expression of CCK [4]: increased; expression of GAP-43 [4]: increased; expression of NCAM [4]: decreased; expression of Rgs4 [4]: increased; expression of SST [4]: increased; expression of Vgf [4]: increased; expression of trkB [4]: increased; anxiety versus vehicle (rats): less anxious; anxiety-reducing effects in innately more anxious (LR) rats (rats; LR versus HR): more pronounced; effect on exon IIIc:IIIb ratio [5]: did not alter; depression-like behavior (Sprague-Dawley rats [6]): decreases depression-like behavior |
| HFKDPKRLY [FGF system peptide inhibitor] | increased depression-like behavior | more immobility | significantly more time | less time | equal time | less swimming | climbing in FST (Rodents [1]): significantly less climbing |
